Tests used:
[1] = molecular target: T1, Focal adhesion kinase 1 (Homo sapiens, UniProt Q05397)
[2] = molecular target: T1, Focal adhesion kinase 1; test: Inhibition of GST-tagged FAK assessed as inhibition of poly-Glu-Tyr phosphorylation by fluorescence polarization assay
[3] = in vitro; conditions: human, liver microsomes
Description: Metabolic stability in human liver microsomes assessed as hepatic extraction ratio

[4] = molecular target: Protein-tyrosine kinase 2-beta (Homo sapiens, UniProt Q14289)
Description: Inhibition of GST-tagged pyk2 assessed as inhibition of poly-Glu-Tyr phosphorylation

[5] = Oral bioavailability in rat; format: ADME, organism-based; conditions: in vivo

T1 sequence (Q05397 whole entry): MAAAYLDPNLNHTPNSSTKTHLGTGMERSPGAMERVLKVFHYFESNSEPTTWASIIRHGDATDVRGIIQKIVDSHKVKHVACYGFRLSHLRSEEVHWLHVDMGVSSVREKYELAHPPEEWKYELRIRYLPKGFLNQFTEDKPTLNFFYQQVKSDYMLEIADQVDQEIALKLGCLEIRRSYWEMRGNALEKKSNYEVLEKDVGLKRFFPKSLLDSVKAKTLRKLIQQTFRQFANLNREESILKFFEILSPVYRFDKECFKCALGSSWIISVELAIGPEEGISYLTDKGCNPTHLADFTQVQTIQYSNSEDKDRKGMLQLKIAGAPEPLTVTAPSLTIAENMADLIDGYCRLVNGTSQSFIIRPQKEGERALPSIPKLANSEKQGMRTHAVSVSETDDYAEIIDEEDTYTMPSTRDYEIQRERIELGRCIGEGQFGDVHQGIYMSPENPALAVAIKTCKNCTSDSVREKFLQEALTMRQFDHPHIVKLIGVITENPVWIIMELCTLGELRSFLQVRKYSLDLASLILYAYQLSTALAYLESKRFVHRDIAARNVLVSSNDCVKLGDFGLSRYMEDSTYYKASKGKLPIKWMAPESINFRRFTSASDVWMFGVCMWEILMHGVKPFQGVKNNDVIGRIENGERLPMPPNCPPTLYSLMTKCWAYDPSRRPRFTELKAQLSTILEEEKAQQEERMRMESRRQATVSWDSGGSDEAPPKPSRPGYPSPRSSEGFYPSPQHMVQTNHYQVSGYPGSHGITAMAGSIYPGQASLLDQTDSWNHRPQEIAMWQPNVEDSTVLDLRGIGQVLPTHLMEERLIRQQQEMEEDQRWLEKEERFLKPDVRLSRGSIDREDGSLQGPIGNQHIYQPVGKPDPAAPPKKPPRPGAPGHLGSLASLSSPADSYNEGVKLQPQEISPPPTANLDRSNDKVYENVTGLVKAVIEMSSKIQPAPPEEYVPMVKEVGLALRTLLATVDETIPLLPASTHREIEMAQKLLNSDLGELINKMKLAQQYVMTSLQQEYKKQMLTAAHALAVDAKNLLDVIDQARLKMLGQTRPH
Chain of Protein-tyrosine kinase 2-beta (Q14289 whole entry): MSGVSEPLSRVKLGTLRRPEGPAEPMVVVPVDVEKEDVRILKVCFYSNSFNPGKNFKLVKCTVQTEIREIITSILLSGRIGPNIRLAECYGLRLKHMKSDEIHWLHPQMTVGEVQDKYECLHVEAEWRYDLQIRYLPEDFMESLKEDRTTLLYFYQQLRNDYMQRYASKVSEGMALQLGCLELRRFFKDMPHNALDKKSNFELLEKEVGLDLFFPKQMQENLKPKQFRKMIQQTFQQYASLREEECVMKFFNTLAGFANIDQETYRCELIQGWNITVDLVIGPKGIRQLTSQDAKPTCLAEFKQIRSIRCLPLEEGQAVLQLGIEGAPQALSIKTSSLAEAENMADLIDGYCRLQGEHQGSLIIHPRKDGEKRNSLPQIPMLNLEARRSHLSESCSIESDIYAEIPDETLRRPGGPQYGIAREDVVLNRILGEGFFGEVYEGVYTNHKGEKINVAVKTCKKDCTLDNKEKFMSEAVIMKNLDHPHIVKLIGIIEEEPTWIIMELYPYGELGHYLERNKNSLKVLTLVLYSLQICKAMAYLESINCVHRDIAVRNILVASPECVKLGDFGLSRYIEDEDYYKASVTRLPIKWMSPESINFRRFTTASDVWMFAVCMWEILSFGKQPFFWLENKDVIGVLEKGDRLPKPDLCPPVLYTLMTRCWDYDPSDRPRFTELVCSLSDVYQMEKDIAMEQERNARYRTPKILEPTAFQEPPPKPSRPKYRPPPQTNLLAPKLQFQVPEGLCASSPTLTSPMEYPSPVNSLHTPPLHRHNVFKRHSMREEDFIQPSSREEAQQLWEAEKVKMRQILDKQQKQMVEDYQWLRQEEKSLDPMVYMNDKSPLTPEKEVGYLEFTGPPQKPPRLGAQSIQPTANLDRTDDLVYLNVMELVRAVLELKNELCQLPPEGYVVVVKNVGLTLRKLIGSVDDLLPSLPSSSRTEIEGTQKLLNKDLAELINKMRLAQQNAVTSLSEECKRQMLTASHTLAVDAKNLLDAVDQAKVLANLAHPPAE

Row | SMILES | IC50 [1] [nM] | IC50 [2] [nM] | hepatic extraction ratio [3] | IC50 [4] [nM] | bioavailability [5] [%]
1 | CN(C)[C@@H]1CCC[C@H]1Nc1nc(Nc2ccncc2)ncc1C(F)(F)F | 4100 | 6900 | 0.48 | – | –
2 | O=C1Cc2cc(Nc3ncc(C(F)(F)F)c(NCc4ccccc4)n3)ccc2N1 | 34 | – | < 0.26 | 120 | –
3 | Cn1ccc2cc(Nc3ncc(C(F)(F)F)c(NCc4ccccn4)n3)ccc21 | – | – | – | – | < 5
4 | CN(C)C(=O)c1cccc(Nc2ncc(C(F)(F)F)c(N[C@@H]3CCC[C@H]3N(C)C)n2)c1 | 3900 | 4000 | 0.66 | – | –
5 | O=C1Cc2cc(Nc3nccc(NCc4ccccn4)n3)ccc2N1 | > 10000 | – | < 0.26 | > 10000 | –
6 | CCN(CC)C(=O)c1ccc(Nc2ncc(C(F)(F)F)c(N[C@@H]3CCC[C@H]3N(C)C)n2)cc1 | 3300 | – | 0.66 | – | –
7 | CS(=O)(=O)c1cccc(CNc2nc(Nc3ccc4c(c3)CC(=O)N4)ncc2C(F)(F)F)c1 | 9 | – | 0.35 | > 1100 | –
8 | CN(c1ccccc1CNc1nc(Nc2ccc(S(C)(=O)=O)cc2)ncc1C(F)(F)F)S(C)(=O)=O | 0.94 | – | 0.93 | 35 | –
9 | FC(F)(F)c1cnc(Nc2ccc3[nH]ncc3c2)nc1NCc1ccccn1 | – | – | – | – | < 5
10 | O=C1Cc2cc(Nc3ncc(Cl)c(NCc4ccccn4)n3)ccc2N1 | 77 | – | < 0.28 | > 1000 | –
11 | CN(C)[C@@H]1CCC[C@H]1Nc1nc(Nc2ccn3ccnc3c2)ncc1C(F)(F)F | – | – | 0.41 | – | –
12 | Cc1cnc(Nc2ccc3c(c2)CC(=O)N3)nc1NCc1ccccn1 | 2200 | – | < 0.3 | > 3000 | –
13 | O=C1CCCc2cc(Nc3ncc(C(F)(F)F)c(NC4CCC4)n3)ccc2N1 | – | – | – | 33 | –
14 | CN(C)[C@@H]1CCC[C@H]1Nc1nc(Nc2ccc3c(c2)CS(=O)(=O)N3)ncc1C(F)(F)F | > 650 | – | < 0.26 | 50 | –
15 | CN(c1cccc(CNc2nc(Nc3ccc4c(c3)CC(=O)N4)ncc2C(F)(F)F)c1)S(C)(=O)=O | 1.9 | – | 0.59 | 190 | –
16 | CS(=O)(=O)c1ccccc1CNc1nc(Nc2ccc3c(c2)CC(=O)N3)ncc1C(F)(F)F | 59 | – | 0.55 | 15 | –

— ChEMBL document CHEMBL1152158, “Trifluoromethylpyrimidine-based inhibitors of proline-rich tyrosine kinase 2 (PYK2): structure-activity relationships and strategies for the elimination of reactive metabolite formation” (Bioorg Med Chem Lett, 2008)
